The text below walks through data of ChEMBL document CHEMBL1136670, “Synthesis of quinolinyl/isoquinolinyl[a]pyrrolo [3,4-c] carbazoles as cyclin D1/CDK4 inhibitors” (Bioorg Med Chem Lett, 2003).

Each structure is given as a SMILES string.

The target in one assay is Cyclin-dependent kinase 4/cyclin D1 (Homo sapiens, UniProt P11802). In words: Inhibitory activity against cyclin D1/ (cyclin dependent kinase) CDK4. It is filed as protein-complex assay.
Sequence of Cyclin-dependent kinase 4/cyclin D1 (P11802 whole entry): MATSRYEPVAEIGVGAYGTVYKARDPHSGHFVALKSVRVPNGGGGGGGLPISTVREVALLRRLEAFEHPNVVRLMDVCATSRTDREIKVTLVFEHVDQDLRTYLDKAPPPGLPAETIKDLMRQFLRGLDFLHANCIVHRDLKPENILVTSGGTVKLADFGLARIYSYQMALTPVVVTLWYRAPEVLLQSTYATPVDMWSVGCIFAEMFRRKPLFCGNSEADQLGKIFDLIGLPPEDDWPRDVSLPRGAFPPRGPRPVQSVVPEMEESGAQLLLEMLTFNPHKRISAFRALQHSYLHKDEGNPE
Sequence of Cyclin-dependent kinase 4/cyclin D1 (P24385 whole entry, further chain): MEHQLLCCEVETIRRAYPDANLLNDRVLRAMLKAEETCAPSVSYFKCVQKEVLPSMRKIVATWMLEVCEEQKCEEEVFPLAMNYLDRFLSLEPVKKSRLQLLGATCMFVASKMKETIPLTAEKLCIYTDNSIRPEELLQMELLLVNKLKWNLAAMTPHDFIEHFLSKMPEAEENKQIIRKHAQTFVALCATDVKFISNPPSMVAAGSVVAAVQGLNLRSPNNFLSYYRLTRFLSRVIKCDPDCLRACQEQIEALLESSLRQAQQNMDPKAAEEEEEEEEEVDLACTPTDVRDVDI
Conditions: not given
As to `O=C1NC(=O)c2c1c1c3ccccc3cnc1c1[nH]c3c(CCO)cccc3c21`, the IC50 was above 2000 nM.

Molecule `O=C1NC(=O)c2c1c1cnc3ccccc3c1c1c2c2ccccc2n1CCCO` registered a 50% inhibitory concentration (IC50) of 1190 nM.

As to `O=C1NC(=O)c2c1c1c3ccccc3cnc1c1c2c2ccccc2n1CCCCO`, the IC50 came out at 1150 nM.

For the molecule `O=C1NC(=O)c2c1c1c3ccccc3cnc1c1c2c2ccccc2n1CCCO`, the half-maximal inhibitory concentration (IC50) is above 2000 nM.

`O=C1NC(=O)c2c1c1c3ccccc3cnc1c1[nH]c3ccccc3c21` had an IC50 above 2000 nM.

`CN(C)CCCCn1c2ccccc2c2c3c(c4c5ccccc5cnc4c21)C(=O)NC3=O` displayed an IC50 of 1140 nM. This counts as single-digit micromolar.

Molecule `O=C1NC(=O)c2c1c1c3ccncc3ccc1c1[nH]c3ccccc3c21` came in with a concentration for half-maximal inhibition (IC50) of 69 nM.

`COc1ccc2c(c1)[nH]c1c3cnc4ccccc4c3c3c(c21)C(=O)NC3=O` showed a half-inhibitory concentration (IC50) of 210 nM.

`O=C1NC(=O)c2c1c1nc3ccccc3cc1c1[nH]c3ccccc3c21` came in with an IC50 above 10000 nM.

`CN(C)CCCn1c2ccccc2c2c3c(c4c5ccccc5cnc4c21)C(=O)NC3=O` had a 50% inhibitory concentration (IC50) of 170 nM.

Molecule `O=C1NC(=O)c2c1c1c3ccccc3ncc1c1[nH]c3ccccc3c21` gave a 50% inhibitory concentration (IC50) of 683 nM.

As to `O=C1NC(=O)c2c1c1c3cccnc3ccc1c1[nH]c3ccccc3c21`, the IC50 was above 200 nM.

Regarding `O=C1NC(=O)c2c1c1c(ccc3cccnc31)c1[nH]c3ccccc3c21`, the concentration for half-maximal inhibition (IC50) is above 2000 nM.

Molecule `O=C1NC(=O)c2c1c1cnc3ccccc3c1c1[nH]c3ccccc3c21` registered an IC50 above 10000 nM.

Regarding `O=C1NC(=O)c2c1c1c3ccccc3ncc1c1[nH]c3cc(Cl)ccc3c21`, the 50% inhibitory concentration (IC50) is above 2000 nM.

The next assay has as its system HCT-116. In words: Inhibition of human colon carcinoma (HCT116) cell proliferation. It is filed as functional, cell-based.
Conditions: not given
For the molecule `O=C1NC(=O)c2c1c1c3ccccc3cnc1c1c2c2ccccc2n1CCCO`, the concentration for half-maximal inhibition (IC50) is 160 nM.

Consider `O=C1NC(=O)c2c1c1c3ccncc3ccc1c1[nH]c3ccccc3c21`, for which it took 130 nM to reach half-maximal inhibition (IC50).

On to `O=C1NC(=O)c2c1c1nc3ccccc3cc1c1[nH]c3ccccc3c21`, for which the concentration for half-maximal inhibition (IC50) came to 5510 nM.

Regarding `CN(C)CCCn1c2ccccc2c2c3c(c4c5ccccc5cnc4c21)C(=O)NC3=O`, the midpoint of inhibition, the IC50, lay at 310 nM.

For the molecule `O=C1NC(=O)c2c1c1c3ccccc3ncc1c1[nH]c3ccccc3c21`, the 50% inhibitory concentration (IC50) was found to be 390 nM.

Consider `O=C1NC(=O)c2c1c1c3cccnc3ccc1c1[nH]c3ccccc3c21`, for which half-maximal inhibition (IC50) was put at 430 nM.

The molecule `O=C1NC(=O)c2c1c1c(ccc3cccnc31)c1[nH]c3ccccc3c21` returned an IC50 of 800 nM.

On to `O=C1NC(=O)c2c1c1cnc3ccccc3c1c1[nH]c3ccccc3c21`, for which the concentration for half-maximal inhibition (IC50) came out at 1950 nM.

Molecule `O=C1NC(=O)c2c1c1c3ccccc3ncc1c1[nH]c3cc(Cl)ccc3c21` yielded an IC50 of 650 nM.

A further assay concerns NCI-H460. As to the kind of experiment: Inhibition of non-small cell lung carcinoma (NCI-460) cell proliferation. Type of assay: functional, cell-based. To be noted: Homo sapiens.
As to `O=C1NC(=O)c2c1c1c3ccccc3cnc1c1c2c2ccccc2n1CCCO`, the IC50 worked out at 410 nM.

Take `O=C1NC(=O)c2c1c1c3ccncc3ccc1c1[nH]c3ccccc3c21`: the IC50 came out at 74 nM.

Regarding `COc1ccc2c(c1)[nH]c1c3cnc4ccccc4c3c3c(c21)C(=O)NC3=O`, 390 nM corresponded to half-maximal inhibition (IC50).

In the case of `O=C1NC(=O)c2c1c1nc3ccccc3cc1c1[nH]c3ccccc3c21`, the IC50 amounted to 4040 nM.

On to `CN(C)CCCn1c2ccccc2c2c3c(c4c5ccccc5cnc4c21)C(=O)NC3=O`, for which the IC50 came out at 370 nM.

`O=C1NC(=O)c2c1c1c3ccccc3ncc1c1[nH]c3ccccc3c21` had an IC50 of 660 nM.

`O=C1NC(=O)c2c1c1c3cccnc3ccc1c1[nH]c3ccccc3c21`: the IC50 was 1910 nM.

In turn, `O=C1NC(=O)c2c1c1c(ccc3cccnc31)c1[nH]c3ccccc3c21` came in with an IC50 of 3530 nM.

Molecule `O=C1NC(=O)c2c1c1cnc3ccccc3c1c1[nH]c3ccccc3c21` registered an IC50 of 930 nM. This IC50 is about 3.8-fold lower than that of the molecule before.

As to `O=C1NC(=O)c2c1c1c3ccccc3ncc1c1[nH]c3cc(Cl)ccc3c21`, the IC50 is 450 nM.

Broadly, the IC50 is the concentration needed to halve the response being measured.
